Reference: patent publication US20230116703A1, “NOVEL ERGOLINES AND METHODS OF TREATING MOOD DISORDERS” (priority 2021, published 2023)

Columns and labels:
5-HT2A receptor [1] = target: T1, 5-HT2A receptor (Homo sapiens, UniProt P28223); experiment: biochemical; type: binding; conditions: 1 nM [^3H]ketanserin, HEK293 stable cell line; read-out: 5-HT2A Receptor Ki (nM) ([^3H]ketanserin)
T1 construct: host or cells: HEK293
Method: Affinity of the test compounds for the 5-HT2A receptor was determined in radioligand binding experiments with [^3H]ketanserin by WuXi AppTec (Hong Kong) Limited, using methods adapted from the literature and under conditions described in Table 1.

5-HT2A receptor [2] = target: T1, 5-HT2A receptor; experiment: cell-based; type: cell-based; conditions: Ca^2+ flux, agonist; read-out: 5-HT2A EC50
Method: (§1) Functional Assays at 5-HT2A, 5-HT2B, and 5-HT1A. Agonist activity at 5-HT2A, 5-HT2B, and 5-HT1A receptors was determined using a FLIPR Ca^2+ flux assay at WuXi AppTec (Hong Kong) Limited according to their standard protocols. Briefly, stably transfected cells expressing the receptor of interest (HEK293 for 5-HT2A and 5-HT2B; CHO cells for 5-HT1A) were grown and plated in a 384 well plate and incubated at 37° C. and 5% CO2 overnight. A solution of 250 mM probenecid in 1 mL FLIPR assay buffer was prepared fresh. This was combined with a fluorescent dye (Fluo-4 Direct™) to make a final assay concentration of 2.5 mM. […] The fluorescent dye was then added to the assay plate along with assay buffer to a final volume of 40 μL. The cell plate was incubated for 50 min at 37° C. and 5% CO2 and placed into the FLIPR Tetra along with the compound plate. 10 μL of references and compounds were then transferred from the compound plate into the cell plate and the fluorescent signal was read.

5-HT1A receptor = target: T2, 5-HT1A receptor (Homo sapiens, UniProt P08908); experiment: cell-based; conditions: Ca^2+ flux, agonist; for EC50: read-out: 5-HT1A EC50
T2 construct: host or cells: CHO cells
T2 sequence (P08908 1-422): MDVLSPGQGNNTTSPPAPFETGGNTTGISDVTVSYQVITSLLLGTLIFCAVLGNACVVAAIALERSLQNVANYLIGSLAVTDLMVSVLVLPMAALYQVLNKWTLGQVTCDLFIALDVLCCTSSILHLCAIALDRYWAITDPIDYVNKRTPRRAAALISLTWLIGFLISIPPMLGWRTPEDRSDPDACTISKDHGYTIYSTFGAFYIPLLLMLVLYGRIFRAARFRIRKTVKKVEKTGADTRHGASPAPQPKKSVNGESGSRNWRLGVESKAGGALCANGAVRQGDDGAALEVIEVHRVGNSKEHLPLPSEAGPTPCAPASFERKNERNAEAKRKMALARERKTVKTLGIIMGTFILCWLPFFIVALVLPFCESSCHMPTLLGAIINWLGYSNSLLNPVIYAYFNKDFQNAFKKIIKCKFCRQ
Method: as §1

5-HT2B receptor = target: T3, 5-HT2B receptor (Homo sapiens, UniProt P41595); experiment: cell-based; conditions: Ca^2+ flux, agonist; read-out: 5-HT2B EC50
T3 construct: host or cells: HEK293
T3 sequence (P41595 whole entry): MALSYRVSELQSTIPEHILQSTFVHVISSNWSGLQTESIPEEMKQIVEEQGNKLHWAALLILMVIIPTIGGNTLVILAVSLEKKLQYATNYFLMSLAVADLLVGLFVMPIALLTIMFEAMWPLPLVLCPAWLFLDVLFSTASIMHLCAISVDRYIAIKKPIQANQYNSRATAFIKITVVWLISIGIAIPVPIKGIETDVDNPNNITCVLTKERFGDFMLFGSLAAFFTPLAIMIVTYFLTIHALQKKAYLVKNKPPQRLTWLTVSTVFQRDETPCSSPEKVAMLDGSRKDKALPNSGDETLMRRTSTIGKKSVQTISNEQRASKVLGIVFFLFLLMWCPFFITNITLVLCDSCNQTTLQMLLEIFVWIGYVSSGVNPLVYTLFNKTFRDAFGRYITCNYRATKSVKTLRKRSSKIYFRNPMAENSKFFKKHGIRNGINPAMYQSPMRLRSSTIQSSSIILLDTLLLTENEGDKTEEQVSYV
Method: as §1

5-HT1B receptor = 5-HT1B receptor (Homo sapiens, UniProt P28222); experiment: cAMP accumulation agonist assay at 5-HT1B; type: cell-based; conditions: cAMP, agonist; read-out: 5-HT1B EC50
5-HT1B receptor, sequence (P28222 whole entry): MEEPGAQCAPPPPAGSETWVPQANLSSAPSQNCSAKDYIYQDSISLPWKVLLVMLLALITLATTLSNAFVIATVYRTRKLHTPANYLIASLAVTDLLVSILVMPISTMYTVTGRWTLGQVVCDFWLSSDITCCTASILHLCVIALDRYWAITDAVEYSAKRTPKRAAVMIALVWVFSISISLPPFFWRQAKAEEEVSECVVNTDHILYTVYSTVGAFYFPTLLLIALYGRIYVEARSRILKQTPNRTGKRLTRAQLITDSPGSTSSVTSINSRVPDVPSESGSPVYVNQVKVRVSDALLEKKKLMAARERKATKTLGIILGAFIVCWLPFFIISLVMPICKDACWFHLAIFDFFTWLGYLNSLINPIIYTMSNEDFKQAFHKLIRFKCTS
Method: Disclosed compounds were tested for agonist activity at several serotonin receptor subtypes (5-HT2A, […], 5-HT2C, and 5-HT1A) using Ca^2+ flux functional assays and the 5-HT1B receptor using a cAMP accumulation assay, with the results summarized in Table 4. […] Potent agonist activity was also observed at the other serotonin receptors tested, although the selectivity profile among the receptors varied across compounds. […]. However, at the same time, the N-propyl compounds were more efficacious agonists at 5-HT2B than the corresponding N-methyl compounds. The selectivity of disclosed compounds for 5-HT2A over 5-HT2C and 5-HT1A was less predictable and varied widely across compounds, ranging from ˜1:6 to ˜20:1 (2C/2A) in the case of 5-HT2C and from ˜1:4 to >100:1 (1A/2A) in the case of 5-HT1A. […] An azetidinyl amide substituent tended to increase potency at 5-HT1A relative to 5-HT2A.
Functional Assay at 5-HT1B. Agonist activity at 5-HT1B was determined using a cAMP accumulation protocol at WuXi AppTec (Hong Kong) Limited according to their standard protocols. Briefly, stably transfected cells were plated in an OptiPlate-384 well plate, incubated at RT for 60 mins, and cAMP standard solution (800 nM, 10 μL) was added to the blank well. Then, 10 μL detection reagent was added to each well, the plate incubated for 60 mins at RT, and the plate read using EnVision.

[3] = Metabolic stability in human liver microsomes (HLM); type: in vitro ADME; conditions: for t1/2: 1 μM, 0.50 mg protein per mL; for microsomal CLint at 1 μM: both sexes, human, pooled human liver microsomes, pH 7.4, 0.50 mg protein per mL
From the text: HLM Stability. Pooled HLM from adult male and female donors (Corning 452117) were used.

[4] = Metabolic stability in mouse liver microsomes (MLM); type: in vitro ADME; conditions: 0.50 mg protein per mL; for t1/2: MLM (CD-1), 1 μM; for microsomal CLint at 1 μM: mouse, pooled mouse liver microsomes, pH 7.4, MLM (CD-1)
From the text: MLM Stability Pooled MLM from CD-1 mice (BIOIVT M00501) were used.

[5] = Metabolic stability in rat liver microsomes (RLM); conditions: for t1/2: RLM, 0.50 mg protein per mL; for microsomal CLint at 1 μM: both, rat, pooled rat liver microsomes, pH 7.4

T1 sequence (P28223 whole entry): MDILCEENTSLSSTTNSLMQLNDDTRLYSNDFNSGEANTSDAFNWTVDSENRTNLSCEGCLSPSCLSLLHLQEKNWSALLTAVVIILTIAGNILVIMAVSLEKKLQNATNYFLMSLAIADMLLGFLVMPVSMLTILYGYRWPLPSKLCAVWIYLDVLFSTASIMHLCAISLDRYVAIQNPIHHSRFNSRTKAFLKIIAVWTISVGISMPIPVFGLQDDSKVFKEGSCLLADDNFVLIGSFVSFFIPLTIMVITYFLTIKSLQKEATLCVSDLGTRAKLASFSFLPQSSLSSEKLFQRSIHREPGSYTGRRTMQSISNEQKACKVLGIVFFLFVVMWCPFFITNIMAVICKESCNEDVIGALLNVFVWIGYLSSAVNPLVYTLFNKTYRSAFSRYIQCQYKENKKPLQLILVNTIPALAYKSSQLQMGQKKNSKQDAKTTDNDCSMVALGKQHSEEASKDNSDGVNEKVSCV

SMILES | Ki (5-HT2A receptor [1]) | EC50 (5-HT2A receptor [2]) | 5-HT1A % Act @ Max Dose (5-HT1A receptor) | EC50 (5-HT1A receptor) | EC50 (5-HT2B receptor) | EC50 (5-HT1B receptor) | t1/2 [3] | microsomal CLint at 1 μM [3] | t1/2 [4] | microsomal CLint at 1 μM [4] | t1/2 [5] | microsomal CLint at 1 μM [5]
CCN(CC)C(=O)[C@@H]1C=C2c3cccc4[nH]cc(c34)C[C@H]2N(Cc2ccc(OC)cc2)C1 [Compound 19, (6aR,9R)—N,N-diethyl-7-(4-methoxybenzyl)-4,6,6a,7,8,9-hexahydroindolo[4,3-fg]quinoline-9-carboxamide] | 5.58 nM | 2.96 µM | −0.65% | > 10 µM | > 10 µM | 5.85 µM | 16.8 min | 82.7 µL/min/mg | 7.2 min | 193 µL/min/mg | 10.0 min | 139 µL/min/mg
CCN(CC)C(=O)[C@@H]1C=C2c3cccc4[nH]cc(c34)C[C@H]2N(CCc2ccccn2)C1 [Compound 23, (6aR,9R)—N,N-diethyl-7-(2-(pyridin-2-yl)ethyl)-4,6,6a,7,8,9-hexahydroindolo[4,3-fg]quinoline-9-carboxamide] | 26.6 nM | 0.512 µM |  | > 10 µM | > 10 µM | 0.45 µM | 7.2 min | 193 µL/min/mg | 1.8 min | 769 µL/min/mg | 4.2 min | 332 µL/min/mg
CCN(CC)C(=O)[C@@H]1C=C2c3cccc4[nH]cc(c34)C[C@H]2N(Cc2cccc(OC)c2)C1 [Compound 18, (6aR,9R)—N,N-diethyl-7-(3-methoxybenzyl)-4,6,6a,7,8,9-hexahydroindolo[4,3-fg]quinoline-9-carboxamide] | 3.41 nM | 0.227 µM |  | > 10 µM | > 10 µM | 1.78 µM | 13.6 min | 102 µL/min/mg | 2.6 min | 524 µL/min/mg | 5.3 min | 263 µL/min/mg
